The source made the active and inactive calls. No cut-off for these calls is given here.

These results are taken from ChEMBL document CHEMBL1150235, “Parnapimarol and nepetaparnone from Nepeta parnassica” (2008).

Experiment [1] has as its system Leptothorax. Put plainly: Insecticidal activity against Leptothorax sp. assessed as number of dead ants at 0.5 mg after 6 to 24 hrs relative to control. In kind it is functional.
Experiment [2] relates to Culex pipiens molestus. Briefly: Insecticidal activity against Culex pipiens molestus larvae at 10 to 50 mg/L after 6 to 24 hrs. Format: functional, organism-based.

With `CC1=C2CC[C@H](C)[C@@]23C(=O)O[C@H]1[C@@]12C(=O)O[C@H]3C(C)=C1CC[C@@H]2C` [NEPETANUDONE], the Activity in experiment [1] was determined as 45%. For the same compound, the outcome in experiment [2] was inactive.
For `CC1=C2CC[C@@H](C)[C@@]23C(=O)O[C@H]1[C@@]12C(=O)O[C@H]3C(C)=C1CC[C@@H]2C` [NEPETAPARNONE], the Activity in experiment [1] is listed as 55%. Further, the result in experiment [2] was inactive.
The corresponding values for `C=C[C@]1(C)CCC2=C(CC[C@H]3[C@](C)(COC(=O)C(C)CC)CC[C@H](O)[C@]23C)[C@@H]1OC(C)=O` (stereo partly specified) [PARNAPIMAROL] are 31% and “inactive”.
